ChEMBL document CHEMBL2321853, “Novel acylethanolamide derivatives that modulate body weight through enhancement of hypothalamic pro-opiomelanocortin (POMC) and/or decreased neuropeptide Y (NPY)” (J Med Chem, 2013)
Activity calls are given as the source filed them. The rule behind the calls is not given here.

Key:
Mus musculus [1] = experiment: Antiobesity activity in Sabra mouse assessed as change in body weight at 1 mg/kg, ip administered on day 8, 9, 10, 11, 14, 18, 24 and 32 measured on day 30 relative to control; format: functional; conditions: route intraperitoneal
Mus musculus [2] = experiment: Antiobesity activity in C57BL/6 mouse assessed as change in cholesterol level at 5 mg/kg, ip measured on day 36 (reference value: 86.58 mg/dL); format: functional; conditions: route intraperitoneal
Mus musculus [3] = experiment: Antiobesity activity in Sabra mouse assessed as change in food consumption at 1 mg/kg, ip administered on day 8, 9, 10, 11, 14, 18, 24 and 32 measured after 6 weeks relative to control; format: functional; conditions: route intraperitoneal
[4] = target: T1, Peroxisome proliferator-activated receptor alpha (Homo sapiens) (UniProt Q07869); experiment: Binding affinity to human recombinant PPARalpha expressed in Escherichia coli at 10 uM for 16 hrs by spectrofluorimetric analysis relative to control
T1 sequence (whole entry): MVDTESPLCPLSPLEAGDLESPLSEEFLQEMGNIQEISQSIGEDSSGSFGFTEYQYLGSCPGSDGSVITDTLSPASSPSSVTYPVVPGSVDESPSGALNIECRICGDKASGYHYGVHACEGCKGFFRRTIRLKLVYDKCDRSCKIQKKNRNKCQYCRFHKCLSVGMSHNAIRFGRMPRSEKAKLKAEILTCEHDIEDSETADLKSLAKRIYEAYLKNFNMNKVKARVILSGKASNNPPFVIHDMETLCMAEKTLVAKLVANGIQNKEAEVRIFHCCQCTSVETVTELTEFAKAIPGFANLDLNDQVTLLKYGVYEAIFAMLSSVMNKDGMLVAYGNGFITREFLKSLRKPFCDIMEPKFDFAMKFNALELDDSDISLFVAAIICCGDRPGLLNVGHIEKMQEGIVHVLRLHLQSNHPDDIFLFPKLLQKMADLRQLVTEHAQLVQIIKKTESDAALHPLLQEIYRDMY

Mus musculus [5] = experiment: Antiobesity activity in C57BL/6 mouse assessed as weight loss at 5 mg/kg, ip administered on day 1, 4, 5, 7, 17, 15, 19 measured on day 3 relative to control; format: functional; conditions: route intraperitoneal
Mus musculus [6] = experiment: Antiobesity activity in Sabra mouse assessed as change in body weight at 1 mg/kg, ip administered on day 8, 9, 10, 11, 14, 18, 24 and 32 measured on day 14 relative to control; format: functional; conditions: route intraperitoneal
Mus musculus [7] = experiment: Antiobesity activity in Sabra mouse assessed as reduction in body weight at 1 mg/kg, ip administered on day 0, 10, 11, 12, 24, 29 measured on day 12 relative to control; format: functional; design: scale not given: the % may be the effect or the level left; conditions: route intraperitoneal
Hypothalamus [8] = experiment: Effect on NPY gene expression in Sabra mouse hypothalamus assessed as change in mRNA level at 1 mg/kg, ip administered on day 8, 9, 10, 11, 14, 18, 24 and 32 by RT-PCR analysis relative to GAPDH; format: functional; conditions: route intraperitoneal
Mus musculus [9] = experiment: Antiobesity activity in C57BL/6 mouse assessed as change in AST level at 5 mg/kg, ip measured on day 36 (reference value: 146.7 IU/L); format: functional; conditions: route intraperitoneal
[10] = target: Cannabinoid receptor 1 (Homo sapiens) (UniProt P21554); experiment: Displacement of [3H]SR141716A from human CB1 receptor expressed in rat Chem-1 cell membrane at 10 uM relative to control; format: cell membranes
Cannabinoid receptor 1 (Homo sapiens), sequence (P21554 whole entry): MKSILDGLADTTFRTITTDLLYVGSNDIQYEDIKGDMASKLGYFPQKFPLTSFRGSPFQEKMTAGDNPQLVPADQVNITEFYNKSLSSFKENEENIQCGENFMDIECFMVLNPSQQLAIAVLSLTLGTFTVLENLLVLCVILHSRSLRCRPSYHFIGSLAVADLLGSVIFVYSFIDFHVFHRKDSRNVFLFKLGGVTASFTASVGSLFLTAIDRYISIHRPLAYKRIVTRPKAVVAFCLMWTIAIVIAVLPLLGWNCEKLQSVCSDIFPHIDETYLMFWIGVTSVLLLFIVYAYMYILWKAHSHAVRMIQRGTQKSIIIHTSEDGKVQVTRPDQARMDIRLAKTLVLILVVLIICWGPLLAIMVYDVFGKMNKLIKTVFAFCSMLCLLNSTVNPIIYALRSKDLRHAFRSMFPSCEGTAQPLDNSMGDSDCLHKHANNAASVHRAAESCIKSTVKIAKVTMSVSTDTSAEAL

Mus musculus [11] = experiment: Antiobesity activity in high fat diet fed C57BL/6 mouse assessed as reduction in body weight at 1 mg/kg, ip administered on day 3, 6, 8, 9, 10 measured on day 10 relative to control; format: functional; design: scale not given: the % may be the effect or the level left; conditions: route intraperitoneal
Hypothalamus [12] = experiment: Decrease in 2-AG level in Sabra mouse hypothalamus at 8 mg/kg, ip for 39 days (reference value: 100 +/- 7 %); format: functional; design: scale not given: the % may be the effect or the level left; conditions: route intraperitoneal
Mus musculus [13] = experiment: Antiobesity activity in C57BL/6 mouse assessed as change in glucose level in blood at 5 mg/kg, ip administered on day 1, 4, 5, 7, 17, 15, 19 measured on day 11 relative to control; format: functional; conditions: route intraperitoneal
Mus musculus [14] = experiment: Antiobesity activity in Sabra mouse assessed as reduction in body weight at 1 mg/kg, ip administered on day 6 to 10 measured on day 16 relative to control; format: functional; design: scale not given: the % may be the effect or the level left; conditions: route intraperitoneal
Mus musculus [15] = experiment: Antiobesity activity in Sabra mouse assessed as change in food consumption at 1 mg/kg, ip administered on day 8, 9, 10, 11, 14, 18, 24 and 32 measured after 5 weeks relative to control; format: functional; conditions: route intraperitoneal
Hypothalamus [16] = experiment: Effect on POMC gene expression in Sabra mouse hypothalamus assessed as change in mRNA level at 1 mg/kg, ip administered on day 8, 9, 10, 11, 14, 18, 24 and 32 by RT-PCR analysis relative to GAPDH; format: functional; conditions: route intraperitoneal
Mus musculus [17] = experiment: Increase in motor activity Sabra mouse at 1 mg/kg, ip administered on day 8, 9, 10, 11, 14, 18, 24 and 32 measured on day 14 by open field test; format: functional, organism-based; design: dose 1 mg/kg
Mus musculus [18] = experiment: Antiobesity activity in Sabra mouse assessed as reduction in body weight at 1 mg/kg, ip administered on day 0, 10, 11, 12, 24, 29 measured on day 24 relative to control; format: functional; design: scale not given: the % may be the effect or the level left; conditions: route intraperitoneal
Mus musculus [19] = experiment: Antiobesity activity in leptin-deficient ob/ob mouse assessed as reduction in body weight at 10 mg/kg via oral gavage; format: functional, organism-based; design: dose 10 mg/kg
Mus musculus [20] = experiment: Antiobesity activity in Sabra mouse assessed as reduction in body weight at 1 mg/kg, ip administered on day 0, 10, 11, 12, 24, 29 measured on day 33 relative to control; format: functional; design: scale not given: the % may be the effect or the level left; conditions: route intraperitoneal
Mus musculus [21] = experiment: Antiobesity activity in Sabra mouse assessed as reduction in body weight at 1 mg/kg, ip administered on day 0, 10, 11, 12, 24, 29 measured on day 22 relative to control; format: functional; design: scale not given: the % may be the effect or the level left; conditions: route intraperitoneal
Mus musculus [22] = experiment: Antiobesity activity in Sabra mouse assessed as change in body weight at 1 mg/kg, ip administered on day 8, 12 and 43 measured on day 12 relative to control; format: functional; conditions: route intraperitoneal
Mus musculus [23] = experiment: Antiobesity activity in Sabra mouse assessed as change in food consumption at 1 mg/kg, ip administered on day 8, 9, 10, 11, 14, 18, 24 and 32 measured after 2 weeks relative to control; format: functional; conditions: route intraperitoneal
Mus musculus [24] = experiment: Antiobesity activity in high fat diet fed C57BL/6 mouse assessed as reduction in body weight at 1 mg/kg, ip administered on day 3, 6, 8, 9, 10 measured on day 8 relative to control; format: functional; design: scale not given: the % may be the effect or the level left; conditions: route intraperitoneal
Mus musculus [25] = experiment: Increase in ALT levels in Sabra mouse at 1 mg/kg, ip administered on day 8, 12 and 43 measured on day 74; format: ADME, organism-based; design: dose 1 mg/kg, route intraperitoneal; conditions: in vivo
Mus musculus [26] = experiment: Antiobesity activity in C57BL/6 mouse assessed as weight loss at 5 mg/kg, ip administered on day 1, 4, 5, 7, 17, 15, 19 measured on day 5 relative to control; format: functional; conditions: route intraperitoneal
Mus musculus [27] = experiment: Antiobesity activity in Sabra mouse assessed as change in body weight at 1 mg/kg, ip administered on day 8, 12 and 43 measured on day 5 relative to control; format: functional; conditions: route intraperitoneal
Mus musculus [28] = experiment: Antiobesity activity in C57BL/6 mouse assessed as weight loss at 5 mg/kg, ip administered on day 1, 4, 5, 7, 17, 15, 19 measured on day 11 relative to control; format: functional; conditions: route intraperitoneal

CCCCCCCC/C=C\CCCCCCCC(=O)N[C@H](CO)C(C)C
Activity (Mus musculus [1]): -5.2%
Activity (Mus musculus [2]): 83.01 mg/dL
Activity (Mus musculus [3]): 83.6%
Activity [4]: 2%
Activity (Mus musculus [5]): -2.6%
Activity (Mus musculus [6]): -1.8%
Activity (Mus musculus [7]): -1.79%
Activity (Hypothalamus [8]): -11%
Activity (Mus musculus [9]): 126 IU/L
inhibition [10]: 35%
Activity (Mus musculus [11]): -6.3%
Activity (Hypothalamus [12]): 44.5%
Activity (Mus musculus [13]): -17.3%
Activity (Mus musculus [14]): 4.6%
Activity (Mus musculus [15]): 85.9%
Activity (Hypothalamus [16]): 36%
Activity (Mus musculus [17]): Active
Activity (Mus musculus [18]): -4.24%
Activity (Mus musculus [19]): inactive
Activity (Mus musculus [20]): -4%
Activity (Mus musculus [21]): -3.06%
Activity (Mus musculus [22]): -2.2%
Activity (Mus musculus [23]): 93.8%
Activity (Mus musculus [24]): -3.2%
Activity (Mus musculus [25]): Not Active
Activity (Mus musculus [26]): -3.2%
Activity (Mus musculus [27]): 1.8%
Activity (Mus musculus [28]): -3.2%
